According to PubChem BioAssay (NCI):
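Step 1: Grow cells in 96-well plates. Step 2: Expose to compound for 48 hours at 5 concentrations. Step 3: Interpolate endpoints linearly; if unreached, use highest concentration. GI50 is the concentration that inhibits growth by half. TGI: concentration producing complete growth inhibition.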

Key:
Experiment in all cases: DTP human tumour cell line panel, 48 h
NCI-H522 lung = system: NCI-H522 lung
SF-295 CNS = system: SF-295 CNS
HS 578T breast = system: HS 578T breast
MCF7 breast = system: MCF7 breast
SK-OV-3 ovarian = system: SK-OV-3 ovarian
EKVX NSCLC = system: EKVX NSCLC
RXF 393 renal = system: RXF 393 renal
RPMI-8226 leukemia = system: RPMI-8226 leukemia
MALME-3M melanoma = system: MALME-3M melanoma
COLO 205 colon = system: COLO 205 colon
NCI-H226 lung = system: NCI-H226 lung
SF-539 CNS = system: SF-539 CNS
U251 CNS = system: U251 CNS
OVCAR-8 ovarian = system: OVCAR-8 ovarian
SW-620 colon = system: SW-620 colon
SN12C renal = system: SN12C renal
SK-MEL-5 melanoma = system: SK-MEL-5 melanoma
SK-MEL-2 melanoma = system: SK-MEL-2 melanoma
HOP-62 NSCLC = system: HOP-62 NSCLC
786-0 renal = system: 786-0 renal
OVCAR-3 ovarian = system: OVCAR-3 ovarian
PC-3 prostate = system: PC-3 prostate
K-562 leukemia = system: K-562 leukemia
MDA-MB-231 breast = system: MDA-MB-231 breast
MDA-MB-435 = system: MDA-MB-435
NCI-H460 lung = system: NCI-H460 lung
A549 NSCLC = system: A549 NSCLC
IGROV1 ovarian = system: IGROV1 ovarian
LOX IMVI melanoma = system: LOX IMVI melanoma
UACC-62 melanoma = system: UACC-62 melanoma
SNB-75 CNS = system: SNB-75 CNS
HOP-92 NSCLC = system: HOP-92 NSCLC
M14 melanoma = system: M14 melanoma
SK-MEL-28 melanoma = system: SK-MEL-28 melanoma
T-47D breast = system: T-47D breast
HL-60(TB) leukemia = system: HL-60(TB) leukemia
BT-549 breast = system: BT-549 breast
CAKI-1 renal = system: CAKI-1 renal
MOLT-4 leukemia = system: MOLT-4 leukemia
KM12 colon = system: KM12 colon
OVCAR-5 ovarian = system: OVCAR-5 ovarian
OVCAR-4 ovarian = system: OVCAR-4 ovarian
SR leukemia = system: SR leukemia
UACC-257 melanoma = system: UACC-257 melanoma
SF-268 CNS = system: SF-268 CNS
HCT-15 colon = system: HCT-15 colon
NCI-H23 lung = system: NCI-H23 lung
UO-31 renal = system: UO-31 renal
HT29 colon = system: HT29 colon
DU-145 prostate = system: DU-145 prostate
NCI/ADR-RES ovarian = system: NCI/ADR-RES ovarian
ACHN renal = system: ACHN renal
SNB-19 CNS = system: SNB-19 CNS
CCRF-CEM leukemia = system: CCRF-CEM leukemia
HCT-116 colon = system: HCT-116 colon
HCC-2998 colon = system: HCC-2998 colon

## Oc1cc2ccccc2cc1-c1n[nH]c(=S)n1CCc1ccccc1
NCI-H522 lung
  GI50: 15.3 µM
  TGI: 31.3 µM
SF-295 CNS
  GI50: 42.3 µM
  TGI: > 100 µM
HS 578T breast
  GI50: 24.2 µM
  TGI: 57 µM
MCF7 breast
  GI50: 22.5 µM
  TGI: 44.5 µM
SK-OV-3 ovarian
  GI50: 25.9 µM
  TGI: > 100 µM
EKVX NSCLC
  GI50: 33.7 µM
  TGI: 79.3 µM
RXF 393 renal
  GI50: 30.7 µM
  TGI: 59 µM
RPMI-8226 leukemia
  GI50: 18.1 µM
  TGI: 62.5 µM
MALME-3M melanoma
  GI50: 26.7 µM
  TGI: 58.9 µM
COLO 205 colon
  GI50: 35.1 µM
  TGI: > 100 µM
NCI-H226 lung
  GI50: 19.9 µM
  TGI: 55.3 µM
SF-539 CNS
  GI50: 21.3 µM
  TGI: 44.5 µM
U251 CNS
  GI50: 20.3 µM
  TGI: 39 µM
OVCAR-8 ovarian
  GI50: 35.5 µM
  TGI: > 100 µM
SW-620 colon
  GI50: 36.2 µM
  TGI: > 100 µM
SN12C renal
  GI50: 16.7 µM
  TGI: 32.6 µM
SK-MEL-5 melanoma
  GI50: 19.4 µM
  TGI: 43.6 µM
SK-MEL-2 melanoma
  GI50: 16.3 µM
  TGI: 32.8 µM
HOP-62 NSCLC
  GI50: 25.7 µM
  TGI: 43.6 µM
786-0 renal
  GI50: 18.3 µM
  TGI: 36.2 µM
OVCAR-3 ovarian
  GI50: 34.4 µM
  TGI: 94 µM
PC-3 prostate
  GI50: 20.6 µM
  TGI: 43.5 µM
K-562 leukemia
  GI50: 68.2 µM
  TGI: > 100 µM
MDA-MB-231 breast
  GI50: 22.1 µM
  TGI: 57.8 µM
MDA-MB-435
  GI50: 26.2 µM
  TGI: 91.7 µM
NCI-H460 lung
  GI50: 20.2 µM
  TGI: 35.3 µM
A549 NSCLC
  GI50: 37.3 µM
  TGI: > 100 µM
IGROV1 ovarian
  GI50: 14.8 µM
  TGI: 30.3 µM
LOX IMVI melanoma
  GI50: 22.1 µM
  TGI: 38.7 µM
UACC-62 melanoma
  GI50: 21.2 µM
  TGI: 39.6 µM
SNB-75 CNS
  GI50: 73.2 µM
  TGI: > 100 µM
HOP-92 NSCLC
  GI50: 55.7 µM
  TGI: > 100 µM
M14 melanoma
  GI50: 15.8 µM
  TGI: 32.2 µM
SK-MEL-28 melanoma
  GI50: 44.8 µM
  TGI: > 100 µM
T-47D breast
  GI50: 43.6 µM
  TGI: > 100 µM
HL-60(TB) leukemia
  GI50: 73.2 µM
  TGI: > 100 µM
BT-549 breast
  GI50: 18.6 µM
  TGI: 45.9 µM
CAKI-1 renal
  GI50: 30.9 µM
  TGI: 73.9 µM
MOLT-4 leukemia
  GI50: > 100 µM
  TGI: > 100 µM
KM12 colon
  GI50: 43.2 µM
  TGI: > 100 µM
OVCAR-5 ovarian
  GI50: 24.1 µM
  TGI: 53.4 µM
OVCAR-4 ovarian
  GI50: 42.2 µM
  TGI: > 100 µM
SR leukemia
  GI50: > 100 µM
  TGI: > 100 µM
UACC-257 melanoma
  GI50: 30 µM
  TGI: 65.6 µM
SF-268 CNS
  GI50: 19.7 µM
  TGI: 37.2 µM
HCT-15 colon
  GI50: 22.5 µM
  TGI: 51.9 µM
NCI-H23 lung
  GI50: 16.5 µM
  TGI: 36.1 µM
UO-31 renal
  GI50: 20.3 µM
  TGI: 52.7 µM
HT29 colon
  GI50: 35.7 µM
  TGI: 91.8 µM
DU-145 prostate
  GI50: 37.1 µM
  TGI: > 100 µM
NCI/ADR-RES ovarian
  GI50: 21.1 µM
  TGI: 43.5 µM
ACHN renal
  GI50: 22.4 µM
  TGI: 69.8 µM
SNB-19 CNS
  GI50: 36.7 µM
  TGI: > 100 µM

## COc1cc(Cl)cc(-c2nn(-c3cccc(NC(=O)c4cccc(C(F)(F)F)c4)c3)cc2-c2ccncc2)c1
NCI-H522 lung
  GI50: 1.99 µM
  TGI: > 100 µM
SF-295 CNS
  GI50: 3.91 µM
  TGI: > 100 µM
HS 578T breast
  GI50: > 100 µM
  TGI: > 100 µM
MCF7 breast
  GI50: 4.17 µM
  TGI: > 100 µM
SK-OV-3 ovarian
  GI50: > 100 µM
  TGI: > 100 µM
RXF 393 renal
  GI50: 1.87 µM
  TGI: > 100 µM
RPMI-8226 leukemia
  GI50: 3.13 µM
  TGI: > 100 µM
MALME-3M melanoma
  GI50: > 100 µM
  TGI: > 100 µM
COLO 205 colon
  GI50: 33.7 µM
  TGI: > 100 µM
CCRF-CEM leukemia
  GI50: 4.38 µM
  TGI: > 100 µM
NCI-H226 lung
  GI50: > 100 µM
  TGI: > 100 µM
SF-539 CNS
  GI50: > 100 µM
  TGI: > 100 µM
U251 CNS
  GI50: 5.56 µM
  TGI: > 100 µM
OVCAR-8 ovarian
  GI50: 6.88 µM
  TGI: > 100 µM
SW-620 colon
  GI50: > 100 µM
  TGI: > 100 µM
SN12C renal
  GI50: > 100 µM
  TGI: > 100 µM
SK-MEL-5 melanoma
  GI50: 5.43 µM
  TGI: > 100 µM
SK-MEL-2 melanoma
  GI50: 6.78 µM
  TGI: > 100 µM
HOP-62 NSCLC
  GI50: > 100 µM
  TGI: > 100 µM
786-0 renal
  GI50: 16.7 µM
  TGI: > 100 µM
HCT-116 colon
  GI50: 3.17 µM
  TGI: > 100 µM
OVCAR-3 ovarian
  GI50: 7.69 µM
  TGI: > 100 µM
PC-3 prostate
  GI50: 2.71 µM
  TGI: > 100 µM
K-562 leukemia
  GI50: 4.69 µM
  TGI: > 100 µM
MDA-MB-231 breast
  GI50: 1.38 µM
  TGI: 9.97 µM
MDA-MB-435
  GI50: > 100 µM
  TGI: > 100 µM
NCI-H460 lung
  GI50: 5.17 µM
  TGI: > 100 µM
A549 NSCLC
  GI50: 3.62 µM
  TGI: > 100 µM
IGROV1 ovarian
  GI50: > 100 µM
  TGI: > 100 µM
LOX IMVI melanoma
  GI50: 15.7 µM
  TGI: > 100 µM
HCC-2998 colon
  GI50: 6.66 µM
  TGI: > 100 µM
UACC-62 melanoma
  GI50: 8.04 µM
  TGI: > 100 µM
SNB-75 CNS
  GI50: 6.62 µM
  TGI: > 100 µM
M14 melanoma
  GI50: 6.09 µM
  TGI: > 100 µM
SK-MEL-28 melanoma
  GI50: > 100 µM
  TGI: > 100 µM
T-47D breast
  GI50: 4.69 µM
  TGI: > 100 µM
HL-60(TB) leukemia
  GI50: 45.9 µM
  TGI: > 100 µM
BT-549 breast
  GI50: > 100 µM
  TGI: > 100 µM
CAKI-1 renal
  GI50: 3.85 µM
  TGI: > 100 µM
MOLT-4 leukemia
  GI50: 2.78 µM
  TGI: > 100 µM
KM12 colon
  GI50: 4.53 µM
  TGI: > 100 µM
OVCAR-5 ovarian
  GI50: > 100 µM
  TGI: > 100 µM
OVCAR-4 ovarian
  GI50: > 100 µM
  TGI: > 100 µM
SR leukemia
  GI50: 2.48 µM
  TGI: > 100 µM
UACC-257 melanoma
  GI50: > 100 µM
  TGI: > 100 µM
SF-268 CNS
  GI50: > 100 µM
  TGI: > 100 µM
HCT-15 colon
  GI50: 3.35 µM
  TGI: > 100 µM
NCI-H23 lung
  GI50: 6.74 µM
  TGI: > 100 µM
UO-31 renal
  GI50: 2.71 µM
  TGI: > 100 µM
HT29 colon
  GI50: 3.37 µM
  TGI: > 100 µM
DU-145 prostate
  GI50: > 100 µM
  TGI: > 100 µM
NCI/ADR-RES ovarian
  GI50: 5.37 µM
  TGI: > 100 µM
ACHN renal
  GI50: 7.21 µM
  TGI: > 100 µM
SNB-19 CNS
  GI50: > 100 µM
  TGI: > 100 µM
